Laboratory results: the supplement of paper PMC10307832

Assays:
Assay in all cases: relative viability (nuclei count vs DMSO), 5 days (fraction); higher = more cells survive
A-427 = system: A-427
Procedure, shortened: (§1)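 Lung cancer cell lines, seeded in 1536-well plates, were treated the following day by pin tool with a single drug or with five library-drug doses (not always all listed) in √10 steps on top of a fixed anchor-drug dose. Cells were fixed and nuclei stained in one step after 5 days, and nuclei were counted. Relative viability is the nuclei count for treated wells divided by that for vehicle wells, reported as medians of duplicate plates.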

BEN = system: BEN
Procedure, shortened: as §1

HARA = system: HARA
Procedure, shortened: as §1

LCLC-97TM1 = system: LCLC-97TM1
Procedure, shortened: as §1

LOU-NH91 = system: LOU-NH91
Procedure, shortened: as §1

LU99A = system: LU99A
Procedure, shortened: as §1

LXF-289 = system: LXF-289
Procedure, shortened: as §1

NCI-H1395 = system: NCI-H1395
Procedure, shortened: as §1

NCI-H1666 = system: NCI-H1666
Procedure, shortened: as §1

NCI-H1755 = system: NCI-H1755
Procedure, shortened: as §1

NCI-H1793 = system: NCI-H1793
Procedure, shortened: as §1

NCI-H1915 = system: NCI-H1915
Procedure, shortened: as §1

NCI-H1944 = system: NCI-H1944
Procedure, shortened: as §1

NCI-H2023 = system: NCI-H2023
Procedure, shortened: as §1

NCI-H2126 = system: NCI-H2126
Procedure, shortened: as §1

NCI-H2170 = system: NCI-H2170
Procedure, shortened: as §1

NCI-H23 = system: NCI-H23
Procedure, shortened: as §1

NCI-H322M = system: NCI-H322M
Procedure, shortened: as §1

NCI-H441 = system: NCI-H441
Procedure, shortened: as §1

NCI-H460 = system: NCI-H460
Procedure, shortened: as §1

NCI-H650 = system: NCI-H650
Procedure, shortened: as §1

PC-3 [JPC-3] = system: PC-3 [JPC-3]
Procedure, shortened: as §1

SK-LU-1 = system: SK-LU-1
Procedure, shortened: as §1

## Cc1cnc(-c2cnc(NCCNc3ccc(C#N)cn3)nc2-c2ccc(Cl)cc2Cl)[nH]1 + CCNC(=O)c1noc(-c2cc(C(C)C)c(O)cc2O)c1-c1ccc(CN2CCOCC2)cc1 [Luminespib] (partner 0.01 µM)
A-427; first compound 0.08 µM
  relative viability: 0.954
A-427; first compound 0.253 µM
  relative viability: 0.828
A-427; first compound 0.8 µM
  relative viability: 0.814
A-427; first compound 2.53 µM
  relative viability: 0.916
BEN; first compound 0.08 µM
  relative viability: 0.338
BEN; first compound 0.253 µM
  relative viability: 0.612
BEN; first compound 0.8 µM
  relative viability: 0.702
BEN; first compound 2.53 µM
  relative viability: 0.501
HARA; first compound 0.08 µM
  relative viability: 0.896
HARA; first compound 0.253 µM
  relative viability: 0.568
HARA; first compound 0.8 µM
  relative viability: 0.665
HARA; first compound 2.53 µM
  relative viability: 0.709
LCLC-97TM1; first compound 0.08 µM
  relative viability: 0.748
LCLC-97TM1; first compound 0.8 µM
  relative viability: 0.959
LCLC-97TM1; first compound 2.53 µM
  relative viability: 0.787
LOU-NH91; first compound 0.08 µM
  relative viability: 0.367
LOU-NH91; first compound 0.253 µM
  relative viability: 0.369
LOU-NH91; first compound 0.8 µM
  relative viability: 0.322
LOU-NH91; first compound 2.53 µM
  relative viability: 0.376
LU99A; first compound 0.08 µM
  relative viability: 0.243
LU99A; first compound 0.253 µM
  relative viability: 0.382
LU99A; first compound 0.8 µM
  relative viability: 0.261
LU99A; first compound 2.53 µM
  relative viability: 0.234
LXF-289; first compound 0.08 µM
  relative viability: 0.695
LXF-289; first compound 0.253 µM
  relative viability: 0.605
LXF-289; first compound 0.8 µM
  relative viability: 0.726
LXF-289; first compound 2.53 µM
  relative viability: 0.665
NCI-H1395; first compound 0.08 µM
  relative viability: 0.627
NCI-H1395; first compound 0.253 µM
  relative viability: 0.708
NCI-H1395; first compound 0.8 µM
  relative viability: 0.65
NCI-H1395; first compound 2.53 µM
  relative viability: 0.677
NCI-H1666; first compound 0.08 µM
  relative viability: 1.04
NCI-H1666; first compound 0.253 µM
  relative viability: 1.04
NCI-H1666; first compound 0.8 µM
  relative viability: 1.04
NCI-H1666; first compound 2.53 µM
  relative viability: 1.08
NCI-H1755; first compound 0.08 µM
  relative viability: 0.614
NCI-H1755; first compound 0.253 µM
  relative viability: 0.327
NCI-H1755; first compound 0.8 µM
  relative viability: 0.59
NCI-H1755; first compound 2.53 µM
  relative viability: 0.385
NCI-H1793; first compound 0.08 µM
  relative viability: 0.18
NCI-H1793; first compound 0.253 µM
  relative viability: 0.173
NCI-H1793; first compound 0.8 µM
  relative viability: 0.147
NCI-H1793; first compound 2.53 µM
  relative viability: 0.201
NCI-H1915; first compound 0.08 µM
  relative viability: 0.808
NCI-H1915; first compound 0.253 µM
  relative viability: 0.587
NCI-H1915; first compound 0.8 µM
  relative viability: 0.753
NCI-H1915; first compound 2.53 µM
  relative viability: 0.779
NCI-H1944; first compound 0.08 µM
  relative viability: 0.831
NCI-H1944; first compound 0.8 µM
  relative viability: 0.861
NCI-H1944; first compound 2.53 µM
  relative viability: 0.678
NCI-H2023; first compound 0.08 µM
  relative viability: 0.872
NCI-H2023; first compound 0.253 µM
  relative viability: 0.751
NCI-H2023; first compound 0.8 µM
  relative viability: 0.863
NCI-H2023; first compound 2.53 µM
  relative viability: 0.774
NCI-H2126; first compound 0.08 µM
  relative viability: 1.11
NCI-H2126; first compound 0.253 µM
  relative viability: 0.861
NCI-H2126; first compound 0.8 µM
  relative viability: 0.966
NCI-H2126; first compound 2.53 µM
  relative viability: 0.903
NCI-H2170; first compound 0.08 µM
  relative viability: 0.984
NCI-H2170; first compound 0.253 µM
  relative viability: 0.593
NCI-H2170; first compound 0.8 µM
  relative viability: 0.667
NCI-H2170; first compound 2.53 µM
  relative viability: 0.655
NCI-H23; first compound 0.08 µM
  relative viability: 0.22
NCI-H23; first compound 0.253 µM
  relative viability: 0.218
NCI-H23; first compound 0.8 µM
  relative viability: 0.216
NCI-H23; first compound 2.53 µM
  relative viability: 0.209
NCI-H322M; first compound 0.08 µM
  relative viability: 0.969
NCI-H322M; first compound 0.253 µM
  relative viability: 0.808
NCI-H322M; first compound 0.8 µM
  relative viability: 0.857
NCI-H322M; first compound 2.53 µM
  relative viability: 1.03
NCI-H441; first compound 0.08 µM
  relative viability: 0.409
NCI-H441; first compound 0.253 µM
  relative viability: 0.342
NCI-H441; first compound 0.8 µM
  relative viability: 0.311
NCI-H441; first compound 2.53 µM
  relative viability: 0.276
NCI-H460; first compound 0.08 µM
  relative viability: 0.0473
NCI-H460; first compound 0.253 µM
  relative viability: 0.0403
NCI-H460; first compound 0.8 µM
  relative viability: 0.0345
NCI-H460; first compound 2.53 µM
  relative viability: 0.0279
NCI-H650; first compound 0.08 µM
  relative viability: 0.806
NCI-H650; first compound 0.253 µM
  relative viability: 0.768
NCI-H650; first compound 0.8 µM
  relative viability: 0.758
NCI-H650; first compound 2.53 µM
  relative viability: 0.76
PC-3 [JPC-3]; first compound 0.08 µM
  relative viability: 0.795
PC-3 [JPC-3]; first compound 0.253 µM
  relative viability: 0.706
PC-3 [JPC-3]; first compound 0.8 µM
  relative viability: 0.675
PC-3 [JPC-3]; first compound 2.53 µM
  relative viability: 0.661
SK-LU-1; first compound 0.08 µM
  relative viability: 0.196
SK-LU-1; first compound 0.253 µM
  relative viability: 0.238
SK-LU-1; first compound 0.8 µM
  relative viability: 0.186
SK-LU-1; first compound 2.53 µM
  relative viability: 0.213
